Drawing on ChEMBL document CHEMBL1157520, “Abietane diterpenoids from the bark of Cryptomeria fortunei” (2008), this text covers Activity for three compounds.

Holding throughout (type): functional
Assay [1] concerns HL-60. Put plainly: Antitumor activity against human HL60 cells at 10^-7 mol/l by MTT assay. For orientation: Tetrazolium assays rely on reduction of a dye to a coloured formazan, in cell work by metabolically active cells.
Assay [2] deals with HL-60. The assay is described as follows: Antitumor activity against human HL60 cells at 10^-6 mol/l by MTT assay.
The subject of assay [3] is HL-60. The assay is described as follows: Antitumor activity against human HL60 cells at 10^-4 mol/l by MTT assay.
The test system of assay [4] is HL-60. Put plainly: Antitumor activity against human HL60 cells at 10^-8 mol/l by MTT assay.
In assay [5] the test system is HL-60. Put plainly: Antitumor activity against human HL60 cells at 10^-5 mol/l by MTT assay.
Assay [6] has as its system A549. The assay is described as follows: Antitumor activity against human A549 cells at 10^-7 mol/l by SRB assay. Background: Sulforhodamine B stains cellular protein and so reports cell mass.
For assay [7], the system named is A549. Put plainly: Antitumor activity against human A549 cells at 10^-5 mol/l by SRB assay.
In assay [8] the test system is A549. The assay is described as follows: Antitumor activity against human A549 cells at 10^-6 mol/l by SRB assay.
Assay [9] concerns A549. The assay is described as follows: Antitumor activity against human A549 cells at 10^-8 mol/l by SRB assay.
Assay [10] relates to A549. Put plainly: Antitumor activity against human A549 cells at 10^-4 mol/l by SRB assay.

For `COc1c(C(C)C)cc2c(c1O)[C@@]1(C)CCCC(C)(C)[C@@H]1[C@@H](O)[C@@H]2OC` [FORTUNIN C], the Activity with HL-60 [1] stood at 10.8%; in the assay with HL-60 [2], 14.4%; in the assay with HL-60 [3], 58.5%; in the assay with HL-60 [4], 9.3%; with HL-60 [5], 56.2%.

Consider `CC(C)c1cc2c(cc1O)[C@@]1(C)CCCC(C)(C)C1=C(O)C2=O`, for which the Activity is 11.9% in the assay on HL-60 [1]; 11.9% with HL-60 [2]; 55.4% in the assay on HL-60 [3]; 8.3% in the assay on HL-60 [4]; 54.4% in the assay with HL-60 [5].

As for `CC(C)c1cc2c(c(O)c1O)[C@@]1(C)CCCC(C)(C)C1=C(O)C2=O` [14-DEOXYCOLEON U], the Activity was 13.9% in the assay on HL-60 [1]; 13.9% in the assay on A549 [6]; 11.5% with HL-60 [2]; 53.6% in the assay on A549 [7]; 11.5% in the assay on A549 [8]; 50.6% in the assay on HL-60 [3]. The Activity in the assay on A549 [9] is listed as 8.4%; with HL-60 [4] it was 8.4%; in the assay on A549 [10], 50.6%; in the assay on HL-60 [5], 53.6%.
